Experimental data: patent US10730883B2 (AbbVie Inc., priority 2015, dated 2020)
Entries after “also recorded” stand apart in the source; their conditions may differ. Like-named read-outs stand apart in the source and are kept apart here.

Experiments:
clinical [1] = settings: human, oral; for AUC(0-t) / half-life: plasma; for CL renal: urine and plasma
Protocol: (§3) Both evaluations followed randomized, double-blind, placebo-controlled designs. Part 1 was conducted at PPD Development (Austin, Tex.) and Part 2 was conducted at two sites: Aspen Clinical Research (Orem, Utah) and Altoona Center for Clinical Research (Duncansville, Pa.). Study protocol and informed consents were approved by RCRC IRB (Austin, Tex.) and Quorum Review IRB (Seattle, Wash.).
(§4) Study drug was administered approximately 30 minutes after a standard breakfast (in the morning) or a snack (in the evening). […] Subjects were confined to the study site and supervised for approximately 18 days.
(§5) Samples quantified below the LLOQ were reported as zero.
(§6) Renal clearance (CLr) was calculated as Au,0-12/AUC0-12 at steady state.
(§7) Statistical analyses were performed using SAS software (Version 9.3; SAS institute Inc., Cary, N.C., USA).

healthy subjects [2] = test: Study 2-Part 1: safety and tolerability, multiple doses, healthy subjects; assay type: in vivo, human
Protocol: as §4
Safety was evaluated based on assessments of adverse events, vital signs, physical examination, laboratory metrics, and 12-lead electrocardiogram (ECG). All subjects who received at least one dose of study drug were included in the safety analyses. Subjects who were administered placebo were pooled into a single group within each study or study part. Laboratory test values and vital signs measurements that were above or below the reference range were identified. […] In subjects with RA, the severity of adverse events were rated by the investigator as mild (transient and easily tolerated by the subject), moderate (causes subject discomfort and interrupts the subject's usual activities), or severe (causes considerable interference with the subject's usual activities and may be incapacitating or life-threatening).

healthy subjects [3] = test: Study 1: safety and tolerability, single doses, healthy subjects
Protocol: (§8) Study 1 was designed as a single-site, randomized, double-blind, placebo-controlled study. […] Study drug was administered following at least 10 hours of fasting. […] Subjects were confined to the study site and supervised for approximately 8 consecutive days.
Safety was evaluated based on assessments of adverse events, vital signs, physical examination, laboratory metrics, and 12-lead electrocardiogram (ECG). All subjects who received at least one dose of study drug were included in the safety analyses. Subjects who were administered placebo were pooled into a single group within each study or study part. Laboratory test values and vital signs measurements that were above or below the reference range were identified. Subjects were followed-up for a total of 7 days in Study 1, 35 days in Study 2-Part 1, and 57 days in Study 2-Part 2.

[4] = Pharmacokinetic interaction of Compound 1 and methotrexate (dose-normalized AUC); assay type: in vivo, human; settings: FIG. 35A
[5] = Study 2-Part 1: multiple-dose escalation PK in healthy subjects
Protocol: as §3, §4, §5, §6, §7

[6] = Study 1: single-dose escalation PK in healthy subjects
Protocol: as §8, §5, §6, §7

[7] = system: subjects with mild to moderate RA; test: Study 2-Part 2: safety and tolerability, subjects with RA; assay type: in vivo, human
Protocol: (§9) Subjects received study drug for 26 consecutive days (Study Days 3 through 28) and a single morning dose of study drug on Study Day 29. […] Subjects were confined to the study site for a total of 10 days—from Day 1 to Day 4 and from Day 27 to Day 31.
Safety was evaluated based on assessments of adverse events, vital signs, physical examination, laboratory metrics, and 12-lead electrocardiogram (ECG). All subjects who received at least one dose of study drug were included in the safety analyses. Subjects who were administered placebo were pooled into a single group within each study or study part. Laboratory test values and vital signs measurements that were above or below the reference range were identified. Subjects were followed-up for a total of 7 days in Study 1, 35 days in Study 2-Part 1, and 57 days in Study 2-Part 2. […] In subjects with RA, the severity of adverse events were rated by the investigator as mild (transient and easily tolerated by the subject), moderate (causes subject discomfort and interrupts the subject's usual activities), or severe (causes considerable interference with the subject's usual activities and may be incapacitating or life-threatening).

clinical [8] = settings: human, oral; for half-life: plasma; for CL renal: urine and plasma, CLr
Protocol: Both evaluations followed randomized, double-blind, placebo-controlled designs. Part 1 was conducted at PPD Development (Austin, Tex.) and Part 2 was conducted at two sites: Aspen Clinical Research (Orem, Utah) and Altoona Center for Clinical Research (Duncansville, Pa.).
as §9, §5, §6

clinical [9] = settings: human, plasma, oral, 48 mg
Protocol: as §8, §5, §6, §7

[10] = Hygroscopicity / moisture sorption isotherm of solid state forms; assay type: physicochemical; settings: general statement on the solid state form
Source text: FIG. 6A is a moisture sorption isotherm corresponding to the Amorphous Freebase (via dehydration).
FIG. 6C is a moisture sorption isotherm corresponding to the Tartrate Hydrate.
FIG. 6D is a moisture sorption isotherm corresponding to the Freebase Anhydrate Form D.
In one embodiment, the Tartrate Hydrate has a moisture sorption isotherm profile showing a weight gain of about 1% to about 2% when relative humidity is increased from about 10% relative humidity to about 90% relative humidity at a temperature of 25° C.

[11] = Moisture sorption isotherm; assay type: physicochemical; settings: below 10% relative humidity at 25° C.
Protocol: Moisture vapor isotherm data were collected with a DVS Advantage (Surface Measurement Systems Ltd, Alperton, United Kingdom). The sample powder (5 mg to 20 mg) was loaded on a tared pan of the DVS Advantage. The moisture sorption isotherm data were collected from 30-0-90-0-30% relative humidity in 10% relative humidity intervals. For each step, the dm/dt criteria was 0.001% over 5 minutes, a minimum dm/dt time of 30 minutes, and a maximum dm/dt of 120 minutes. Data was collected isothermally at 25° C. with a nitrogen flow rate of 200 cm^3/minute. The post DVS sample was kept at approximately 30% relative humidity before PXRD analysis.

[12] = Chemical stability of solid state forms in closed vials at controlled temperature and relative humidity; assay type: physicochemical
Protocol: (§1) The Amorphous Freebase, however, is hygroscopic and can comprise as much as 12% by weight water at 25° C./90% relative humidity. Environmental controls potentially are required to ensure appropriate control of potency and water content during storage, dispensing, and handling of the Amorphous Freebase.
(§2) The Tartrate Hydrate, however, potentially will convert to an amorphous tartrate below 10% relative humidity, when heated, or when compressed or under shear.

[13] = Stability of solid state forms to light and peroxide; assay type: physicochemical
Protocol: as §1, §2

[14] = Solubility of solid state forms; assay type: physicochemical
[15] = Solid state accelerated stability study; assay type: physicochemical; settings: for Growth of degradation products: open and closed glass vials
Protocol: Samples (approximately 1 mg to 2 mg) of the solid state form were weighed into glass vials and tested as described below.

[16] = Physical stability of solid state forms (dehydration, desolvation, conversion); assay type: physicochemical; settings: general statement on the solid state form
Protocol: The Tartrate Hydrate dehydrated into Amorphous at low relative humidity and high temperature, e.g., <10% RH at 25° C. Shearing and compression potentially cause conversion to the amorphous tartrate, and therefore it is not suitable for compressing into tablet form. Additionally, the filter cake solidified during drying, resulting in the need for additional controls during drying.
In addition, Freebase Hydrate Form C can be grown into different particle sizes.
Freebase Anhydrate Form D can be manufactured only when the water content of the crystallization solvent is low, and will convert to Freebase Hydrate Form C in solutions at high water content. The manufacture of Freebase Anhydrate Form D thus requires strict control of water content. Freebase Anhydrate Form D is slow to crystallize, and difficult to manufacture in higher yield. […] Freebase Hydrate Form C will convert to Freebase Anhydrate Form D in a solution of ethyl acetate with low water content.
The resulting amorphous hydrochloride is hygroscopic. Yields obtained for each of the crystalline hydrochlorides generally have been in the 10% to 15% range.

[17] = multiple twice-daily doses 3 mg
[18] = multiple twice-daily doses 6 mg
[19] = multiple twice-daily doses 12 mg
[20] = multiple twice-daily doses 24 mg
[21] = multiple twice-daily doses, Total Compound 1
[22] = 6 mg BID, Day 14, healthy subjects
[23] = 12 mg BID, Day 14, healthy subjects
[24] = 24 mg BID, Day 14, healthy subjects
[25] = single 48 mg dose, healthy subjects
[26] = on average across all dose groups

CC[C@@H]1CN(C(=O)NCC(F)(F)F)C[C@@H]1c1cnc2cnc3[nH]ccc3n12 [Compound 1, (3S,4R)-3-ethyl-4-(3H-imidazo[1,2-a]pyrrolo[2,3-e]pyrazin-8-yl)-N-(2,2,2-trifluoroethyl)pyrrolidine-1-carboxamide]
AUC(0-t) (clinical [1]; 3 mg): 78.3 ± 20.3 ng·h/mL
half-life (clinical [1]; 3 mg): 3.2 ± 0.4 h
AUC(0-t) (clinical [1]; 6 mg): 138 ± 16.7 ng·h/mL
half-life (clinical [1]; 6 mg): 3.3 ± 0.3 h
half-life (clinical [1]; 12 mg): 3.2 ± 0.5 h
CL renal (clinical [1]; 3 mg): 125 mL/min
CL renal (clinical [1]; 12 mg): 162 mL/min
Abdominal Discomfort, subjects (healthy subjects [2]; [17]): 0
Abdominal Pain, subjects (healthy subjects [2]; [17]): 0
Diarrhoea, subjects (healthy subjects [2]; [17]): 0
Headache, subjects (healthy subjects [2]; [17]): 0
Nasopharyngitis, subjects (healthy subjects [2]; [17]): 1 (12.5%)
Abdominal Discomfort, subjects (healthy subjects [2]; [18]): 0
Abdominal Pain, subjects (healthy subjects [2]; [18]): 1 (12.5%)
Diarrhoea, subjects (healthy subjects [2]; [18]): 1 (12.5%)
Headache, subjects (healthy subjects [2]; [18]): 2 (25.0%)
Nasopharyngitis, subjects (healthy subjects [2]; [18]): 1 (12.5%)
Abdominal Discomfort, subjects (healthy subjects [2]; [19]): 0
Abdominal Pain, subjects (healthy subjects [2]; [19]): 0
Diarrhoea, subjects (healthy subjects [2]; [19]): 1 (12.5%)
Headache, subjects (healthy subjects [2]; [19]): 2 (25.0%)
Nasopharyngitis, subjects (healthy subjects [2]; [19]): 0
Abdominal Discomfort, subjects (healthy subjects [2]; [20]): 0
Abdominal Pain, subjects (healthy subjects [2]; [20]): 1 (12.5%)
Diarrhoea, subjects (healthy subjects [2]; [20]): 0
Headache, subjects (healthy subjects [2]; [20]): 1 (12.5%)
Nasopharyngitis, subjects (healthy subjects [2]; [20]): 0
Abdominal Discomfort, subjects (healthy subjects [2]; [21]): 0
Abdominal Pain, subjects (healthy subjects [2]; [21]): 2 (6.3%)
Diarrhoea, subjects (healthy subjects [2]; [21]): 2 (6.3%)
Headache, subjects (healthy subjects [2]; [21]): 5 (15.6%)
Nasopharyngitis, subjects (healthy subjects [2]; [21]): 2 (6.3%)
changes in hematologic parameters (healthy subjects [2]; multiple-dose administration in healthy subjects for 14 days): no clinically significant changes
Headache, subjects (healthy subjects [3]; single dose 48 ng): 2 (33.3%)
Presyncope, subjects (healthy subjects [3]; single dose 48 ng): 0
Headache, subjects (healthy subjects [3]; single dose 1 mg): 0
Presyncope, subjects (healthy subjects [3]; single dose 1 mg): 0
Headache, subjects (healthy subjects [3]; single dose 3 mg): 0
Presyncope, subjects (healthy subjects [3]; single dose 3 mg): 0
Headache, subjects (healthy subjects [3]; single dose 6 mg): 0
Presyncope, subjects (healthy subjects [3]; single dose 6 mg): 1 (16.7%)
Headache, subjects (healthy subjects [3]; single dose 12 mg): 0
Presyncope, subjects (healthy subjects [3]; single dose 12 mg): 0
Headache, subjects (healthy subjects [3]; single dose 24 mg): 0
Presyncope, subjects (healthy subjects [3]; single dose 24 mg): 1 (16.7%)
Headache, subjects (healthy subjects [3]; single dose 36 mg): 0
Presyncope, subjects (healthy subjects [3]; single dose 36 mg): 0
Tolerability (healthy subjects [3]; single doses up to 48 mg and multiple twice daily doses up to 24 mg, immediate-release formulation): well-tolerated
dose-limiting toxicities or safety concerns (healthy subjects [3]; single doses up to 48 mg or multiple doses up to 24 mg twice daily): no dose-limiting toxicities or safety concerns
Presyncope, subjects (healthy subjects [3]; single doses, Total Compound 1): 2 (4.8%)
Severity of TEAEs (healthy subjects [3]; single doses, healthy subjects): mild
maximum tolerated dose (healthy subjects [3]; single or multiple dose studies): not reached
effect of concomitant methotrexate administration on Compound 1 dose-normalized AUC [4]: lack of effect
Ctrough ([5]; 3 mg BID, Day 14, healthy subjects): 1.46 ± 0.50 ng/mL
CL/F [5, 22]: 43.9 ± 5.4 L/h
Ctrough [5, 22]: 2.29 ± 0.41 ng/mL
CL/F [5, 23]: 45.5 ± 8.04 L/h
Ctrough [5, 23]: 4.54 ± 1.55 ng/mL
CL/F [5, 24]: 46.1 ± 6.44 L/h
Ctrough [5, 24]: 9.50 ± 2.57 ng/mL
t1/2F (functional half-life) ([5]; 24 mg BID, Day 14, healthy subjects, harmonic mean ± pseudo-SD): 3.3 ± 0.4 h
functional half-life ([5]; estimated from Cmax to Ctrough ratio at steady-state, healthy volunteers): approximately 3 hours
pre-dose concentrations on Study Day 13 lower compared with Study Day 5 ([5]; multiple dosing, healthy volunteers): 13%
CL/F [6, 25]: 47.6 ± 8.97 L/h
dose-normalized AUC∞ lower than that following 3 mg dose [6, 25]: 40%
Dose proportionality of exposures ([6]; single dose range of 3 to 36 mg and multiple dose range of 3 mg to 24 mg BID): dose proportional
subjects with at least one TEAE ([7]; Compound 1 dose groups (total of 11 subjects with RA)): Five subjects
number of TEAEs reported ([7]; Compound 1 dose groups, subjects with RA): 7
half-life (clinical [8]; 6 mg, t1/2F (functional half-life), 6 mg BID, Day 29, subjects with RA, harmonic mean): 3.5 h
half-life (clinical [8]; 12 mg, t1/2F (functional half-life), 12 mg BID, Day 29, subjects with RA, harmonic mean): 3.7 h
half-life (clinical [8]; 24 mg, t1/2F (functional half-life), 24 mg BID, Day 29, subjects with RA, harmonic mean): 3.6 h
half-life (clinical [8]; functional half-life, subjects with RA on stable doses of methotrexate): ~4 h
CL renal (clinical [8]; 6 mg, 6 mg BID, Day 28, subjects with RA): 116 mL/min
CL renal (clinical [8]; 6 mg, 6 mg BID, Day 29, subjects with RA): 82.2 mL/min
CL renal (clinical [8]; 12 mg, 12 mg BID, Day 28, subjects with RA): 104 mL/min
CL renal (clinical [8]; 12 mg, 12 mg BID, Day 29, subjects with RA): 82.7 mL/min
CL renal (clinical [8]; 24 mg, 24 mg BID, Day 28, subjects with RA): 105 mL/min
AUC(0-inf) (clinical [9]): 1040 ± 174 ng·h/mL
AUC(0-t) (clinical [9]): 1030 ± 174 ng·h/mL
Ctrough (6 mg BID, Day 28, subjects with RA): 5.81 ng/mL
AUC0-12 (12 mg BID, Day 28, subjects with RA): 334 ng·h/mL
Ctrough (12 mg BID, Day 29, subjects with RA): 6.44 ng/mL
Ctrough (24 mg BID, Day 28, subjects with RA): 15.3 ng/mL
Ctrough (24 mg BID, Day 29, subjects with RA): 14.9 ng/mL
apparent oral clearance lower in subjects with RA compared to healthy subjects [26]: 23%
higher exposure in subjects with RA than in healthy subjects [26]: approximately 30%

CC[C@@H]1CN(C(=O)NCC(F)(F)F)C[C@@H]1c1cnc2cnc3[nH]ccc3n12.O.O.O.O.O=C(O)C(O)C(O)C(=O)O [Tartrate Hydrate, (3S,4R)-3-ethyl-4-(3H-imidazo[1,2-a]pyrrolo[2,3-e]pyrazin-8-yl)-N-(2,2,2-trifluoroethyl)pyrrolidine-1-carboxamide tartrate tetrahydrate]
hygroscopicity [10]: not hygroscopic
Dehydration in moisture sorption isotherm analysis [11]: dehydrates to an amorphous tartrate
degradation observed in closed vials ([12]; closed vials, 30° C./65% relative humidity and 40° C./75% relative humidity over 12 weeks, 50° C./75% relative humidity over 6 weeks): no degradation
chemical stability ([12]; general statement on the solid state form): acceptable chemical stability
stability to light and peroxide [13]: acceptable stability
BCS class [14]: Class I
Solubility ([14]; Amorphous Freebase: relative to the corresponding crystalline forms): high solubility; also recorded: good solubility
Growth of degradation products ([15]; 25° C./60% relative humidity, up to 24 months): no growth of degradation products
Growth of degradation products ([15]; 40° C./75% relative humidity, at least one month): no growth of degradation products
Growth of degradation products ([15]; 50° C./75% relative humidity, up to six weeks): no growth of degradation products
chemical stability ([15]; solid state accelerated stability study): acceptable
Change in attributes evaluated (description, crystal form, assay, impurities and water content) ([15]; storage conditions of the accelerated stability study): No material change
physical stability [16]: lack of physical stability
